# Results reported in PubChem BioAssay AID1963836 (Molecular Pharmacology Branch, DTP, NCI, 2024).
# System: 857933-349-R-J2-PDC complex spheroid viability
# Assay: Anticancer human tumor 857933-349-R-J2-PDC patient-derived colon adenocarcinoma cell line growth inhibition [POLQ]
# Conditions: for IC50: curve of first compound; for viability, T/C: stronger effect = lower value
# Procedure: Multicellular complex tumor spheroid response to Polymerase (POL) inhibitors (novobiocin, ART-558, RP6685) in combination with a variety of drugs and investigational agents in selected tumor cell lines
# The POL inhibitors (novobiocin, ART-558, and RP6685) were evaluated both individually and in combination with standard of care and investigational anticancer small molecules within a complex spheroid model of solid tumors. . Complex spheroids include a stromal component modeled by human endothelial cells (HUVEC) and fibroblasts modeled by human mesenchymal stem cells (MSCs). The concentration ranges selected for each drug and investigational agent were based upon clinically achievable concentrations if the clinical Cmax of the agent was known.
# Compounds. The drugs and investigational agents: novobiocin (NSC847541), ART-558 (NSC835418), RP-6685 (NSC848927), peposertib (NSC802822), ceralasertib (NSC780249), elimusertib (NSC800525), camonsertib (NSC841442), AZD-1390 (NSC803789), olaparib (NSC753686), talazoparib (NSC767125), rucaparib (NSC756644), sotorasib (NSC818433), MRTX-1133 (NSC836407), SN-38 (NSC673596), topotecan (NSC609699), epotoside (NSC141540), doxorubicin (NSC123127), gemcitabine (NSC613327), 5-fluorouracil (NSC19893), paclitaxel (NSC125973), vemurafenib (NSC761431), MSA-2 (NSC828583), SN-011 (NSC837082), adavosertib (NSC754352), prexasertib (NSC758257), carboplatin (NSC241240) and oxaliplatin (NSC266046), were obtained from the National Cancer Institute (NCI) Developmental Therapeutics Program Chemical Repository (21). The FDA-approved anticancer drug set is available from the Developmental Therapeutics Program at https://dtp.cancer.gov/organization/dscb/obtaining/. […] The stock solutions were prepared in dimethyl sulfoxide (DMSO, Sigma-Aldrich, St. Louis, MO, cat. D2650), except for the platinum compounds which were prepared in saline (Quality Biological, Gaithersburg, MD, cat. 114-055-101), at 800-fold the tested concentration and stored at -70 degrees C prior to their use. All drugs and investigational agents were tested over a range starting from a high concentration at or near the clinical Cmax and decreasing in half-log increments. If the clinical Cmax for an agent had not been determined, the highest concentration tested was 10 microM, except for SN-38, which was tested at a high concentration of 1 microM.
# Cell Culture. All cells were maintained in an incubator at 37 degrees C and 5% CO2 with 95% humidity. The PDC lines were cultured according to standard operating procedures established by the NCI PDMR (https://pdmr.cancer.gov). Table 3 of the manuscript, lists the cell lines along with the number of the three cell types plated to form the mct-spheroids and media for tumor cell growth. After thawing, all PDC lines, except 997537-175-T-J1-PDC and 415267-285-R-J2-PDC, were cultured in Matrigel-coated flasks prepared with a working solution of 1X Ham's F-12 nutrient mix, without supplementation (Thermo Fisher Scientific, cat. 11765054), 100 U/mL penicillin-streptomycin (Thermo Fisher Scientific, cat. 15140122), and 2.5% Matrigel (Corning Inc., Corning, NY, cat. 354248) for the first three passages. The two PDC lines 997537-175-T-J1-PDC and 415267-285-R-J2-PDC were cultured on uncoated flasks. The 857933-349-R-J2-PDC line was cultured in 6C/Colon 1B media containing advanced DMEM/F-12 (Thermo Fisher Scientific, cat. 12634028), 10 mM HEPES (Thermo Fisher Scientific, cat. 15630080), 1X GlutaMAX supplement (Thermo Fisher Scientific, cat. 35050061), 0.1 mg/mL primocin (InvivoGen, San Diego, CA, cat. ant-pm-2), 10% defined fetal bovine serum, heat inactivated (HyClone Laboratories Inc., Logan, UT, cat. SH30070.03HI), 50% L-WRN conditioned media (ATCC, cat. CRL-3276), 1.25 mM N-Acetyl-L-cysteine (Sigma-Aldrich, cat. A9165), 10 mM nicotinamide (Sigma-Aldrich, cat. N0636), 1X B-27 supplement (Thermo Fisher Scientific, cat. 17504044), 1X N-2 supplement (Thermo Fisher Scientific, cat. […]
# 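Further: spheroids exposed to compounds for seven days before readout.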
smiles,measurement,setting,value
CC(=O)O[C@H]1C(=O)[C@@]2(C)[C@H]([C@H](OC(=O)c3ccccc3)[C@]3(O)C[C@H](OC(=O)[C@H](O)[C@@H](NC(=O)c4ccccc4)c4ccccc4)C(C)=C1C3(C)C)[C@]1(OC(C)=O)CO[C@@H]1C[C@@H]2O + COC1C(OC(N)=O)C(O)C(Oc2ccc3c(O)c(NC(=O)c4ccc(O)c(CC=C(C)C)c4)c(=O)oc3c2C)OC1(C)C,IC50,second compound 0.0316 µM,< 0.00949 µM
same,IC50,second compound 0.1 µM,0.0146 µM
same,IC50,second compound 0.316 µM,0.0132 µM
same,IC50,second compound 1 µM,0.0122 µM
same,IC50,second compound 3.16 µM,0.00976 µM
same,IC50,second compound 10 µM,0.0113 µM
same,"viability, T/C","second compound 0.0316 µM, first compound 0.00949 µM",48.7%
same,"viability, T/C","second compound 0.0316 µM, first compound 0.03 µM",25%
same,"viability, T/C","second compound 0.0316 µM, first compound 0.0949 µM",19.1%
same,"viability, T/C","second compound 0.0316 µM, first compound 0.3 µM",17.6%
same,"viability, T/C","second compound 0.0316 µM, first compound 0.949 µM",15.8%
same,"viability, T/C","second compound 0.0316 µM, first compound 3 µM",20.8%
same,"viability, T/C","second compound 0.1 µM, first compound 0.00949 µM",61%
same,"viability, T/C","second compound 0.1 µM, first compound 0.03 µM",31.7%
same,"viability, T/C","second compound 0.1 µM, first compound 0.0949 µM",15.2%
same,"viability, T/C","second compound 0.1 µM, first compound 0.3 µM",15.4%
same,"viability, T/C","second compound 0.1 µM, first compound 0.949 µM",15.1%
same,"viability, T/C","second compound 0.1 µM, first compound 3 µM",16.5%
same,"viability, T/C","second compound 0.316 µM, first compound 0.00949 µM",57.8%
same,"viability, T/C","second compound 0.316 µM, first compound 0.03 µM",30.2%
same,"viability, T/C","second compound 0.316 µM, first compound 0.0949 µM",15.7%
same,"viability, T/C","second compound 0.316 µM, first compound 0.3 µM",19.7%
same,"viability, T/C","second compound 0.316 µM, first compound 0.949 µM",13.8%
same,"viability, T/C","second compound 0.316 µM, first compound 3 µM",25.4%
same,"viability, T/C","second compound 1 µM, first compound 0.00949 µM",58.7%
same,"viability, T/C","second compound 1 µM, first compound 0.03 µM",19.7%
same,"viability, T/C","second compound 1 µM, first compound 0.0949 µM",12.8%
same,"viability, T/C","second compound 1 µM, first compound 0.3 µM",20.5%
same,"viability, T/C","second compound 1 µM, first compound 0.949 µM",16.1%
same,"viability, T/C","second compound 1 µM, first compound 3 µM",20.3%
same,"viability, T/C","second compound 3.16 µM, first compound 0.00949 µM",50.7%
same,"viability, T/C","second compound 3.16 µM, first compound 0.03 µM",21.3%
same,"viability, T/C","second compound 3.16 µM, first compound 0.0949 µM",15.2%
same,"viability, T/C","second compound 3.16 µM, first compound 0.3 µM",16.4%
same,"viability, T/C","second compound 3.16 µM, first compound 0.949 µM",16.4%
same,"viability, T/C","second compound 3.16 µM, first compound 3 µM",19.3%
same,"viability, T/C","second compound 10 µM, first compound 0.00949 µM",54.5%
same,"viability, T/C","second compound 10 µM, first compound 0.03 µM",25.5%
same,"viability, T/C","second compound 10 µM, first compound 0.0949 µM",18.3%
same,"viability, T/C","second compound 10 µM, first compound 0.3 µM",17.4%
same,"viability, T/C","second compound 10 µM, first compound 0.949 µM",15.7%
same,"viability, T/C","second compound 10 µM, first compound 3 µM",20.7%
O=c1[nH]cc(F)c(=O)[nH]1 + COC1C(OC(N)=O)C(O)C(Oc2ccc3c(O)c(NC(=O)c4ccc(O)c(CC=C(C)C)c4)c(=O)oc3c2C)OC1(C)C,IC50,second compound 0.0316 µM,1.96 µM
same,IC50,second compound 0.1 µM,1.64 µM
same,IC50,second compound 0.316 µM,2.27 µM
same,IC50,second compound 1 µM,2.22 µM
same,IC50,second compound 3.16 µM,2.76 µM
same,IC50,second compound 10 µM,2.56 µM
same,"viability, T/C","second compound 0.0316 µM, first compound 0.0316 µM",81.7%
same,"viability, T/C","second compound 0.0316 µM, first compound 0.1 µM",110%
same,"viability, T/C","second compound 0.0316 µM, first compound 0.316 µM",125%
same,"viability, T/C","second compound 0.0316 µM, first compound 1 µM",71.1%
same,"viability, T/C","second compound 0.0316 µM, first compound 3.16 µM",45.5%
same,"viability, T/C","second compound 0.0316 µM, first compound 10 µM",24.6%
same,"viability, T/C","second compound 0.1 µM, first compound 0.0316 µM",87.3%
same,"viability, T/C","second compound 0.1 µM, first compound 0.1 µM",91.5%
same,"viability, T/C","second compound 0.1 µM, first compound 0.316 µM",92.2%
same,"viability, T/C","second compound 0.1 µM, first compound 1 µM",58.1%
same,"viability, T/C","second compound 0.1 µM, first compound 3.16 µM",44.7%
same,"viability, T/C","second compound 0.1 µM, first compound 10 µM",30.3%
same,"viability, T/C","second compound 0.316 µM, first compound 0.0316 µM",99.3%
same,"viability, T/C","second compound 0.316 µM, first compound 0.1 µM",87.2%
same,"viability, T/C","second compound 0.316 µM, first compound 0.316 µM",88.8%
same,"viability, T/C","second compound 0.316 µM, first compound 1 µM",70.9%
same,"viability, T/C","second compound 0.316 µM, first compound 3.16 µM",41%
same,"viability, T/C","second compound 0.316 µM, first compound 10 µM",28.4%
same,"viability, T/C","second compound 1 µM, first compound 0.0316 µM",109%
same,"viability, T/C","second compound 1 µM, first compound 0.1 µM",92.1%
same,"viability, T/C","second compound 1 µM, first compound 0.316 µM",97.3%
same,"viability, T/C","second compound 1 µM, first compound 1 µM",63.8%
same,"viability, T/C","second compound 1 µM, first compound 3.16 µM",44.5%
same,"viability, T/C","second compound 1 µM, first compound 10 µM",30%
same,"viability, T/C","second compound 3.16 µM, first compound 0.0316 µM",79.7%
same,"viability, T/C","second compound 3.16 µM, first compound 0.1 µM",86.3%
same,"viability, T/C","second compound 3.16 µM, first compound 0.316 µM",82.3%
same,"viability, T/C","second compound 3.16 µM, first compound 1 µM",85.3%
same,"viability, T/C","second compound 3.16 µM, first compound 3.16 µM",45.5%
same,"viability, T/C","second compound 3.16 µM, first compound 10 µM",29.3%
same,"viability, T/C","second compound 10 µM, first compound 0.0316 µM",108%
same,"viability, T/C","second compound 10 µM, first compound 0.1 µM",74.4%
same,"viability, T/C","second compound 10 µM, first compound 0.316 µM",76.3%
same,"viability, T/C","second compound 10 µM, first compound 1 µM",76.2%
same,"viability, T/C","second compound 10 µM, first compound 3.16 µM",42.2%
same,"viability, T/C","second compound 10 µM, first compound 10 µM",29.3%
